Measurements reported in ChEMBL document CHEMBL3400000, “The discovery of potent agonists for GPR88, an orphan GPCR, for the potential treatment of CNS disorders” (Bioorg Med Chem Lett, 2015).

Each molecule was assayed against G protein-coupled receptor 88 (Homo sapiens, UniProt Q9GZN0) (assay: Agonist activity at GPR88 (unknown origin) transfected into cells assessed as cAMP accumulation by HTRF assay).
Format: functional

Sequence of G protein-coupled receptor 88 (Q9GZN0 whole entry): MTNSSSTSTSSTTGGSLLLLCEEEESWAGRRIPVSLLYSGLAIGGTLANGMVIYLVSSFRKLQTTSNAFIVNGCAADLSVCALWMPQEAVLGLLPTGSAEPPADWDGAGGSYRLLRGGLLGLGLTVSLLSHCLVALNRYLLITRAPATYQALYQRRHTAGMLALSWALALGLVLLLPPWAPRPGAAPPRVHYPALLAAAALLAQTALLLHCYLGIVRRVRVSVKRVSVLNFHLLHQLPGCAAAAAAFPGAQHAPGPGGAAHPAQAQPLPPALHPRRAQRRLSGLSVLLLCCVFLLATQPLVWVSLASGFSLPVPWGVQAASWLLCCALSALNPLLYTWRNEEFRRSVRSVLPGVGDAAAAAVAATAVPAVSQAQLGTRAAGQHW

| Compound | EC50 [nM] |
| --- | --- |
| N[C@H](CN(C(=O)[C@@H]1C[C@H]1c1ccccc1)c1ccc(-c2ccccc2)cc1)c1ccccc1 | 4.7 |
| NC1(CN(C(=O)[C@@H]2C[C@H]2c2ccccc2)c2ccc(-c3ccccc3)cc2)CCCC1 | 0.57 |
| O=C([C@@H]1C[C@H]1c1ccccc1)N(CC1CCCNC1)c1ccc(-c2ccccc2)cc1 (some centres undefined) | 10 |
| CCC(C)CNCCN(C(=O)[C@@H]1C[C@H]1c1ccccc1)c1ccc(-c2ccccc2)cc1 (some centres undefined) | 4.7 |
| O=C([C@@H]1C[C@H]1c1ccccc1)N(CCNCC1CCCCC1)c1ccc(-c2ccccc2)cc1 | 6.6 |
| O=C([C@@H]1C[C@H]1c1ccccc1)N(CCNCC1CCCC1)c1ccc(-c2ccccc2)cc1 | 2.5 |
| CC[C@H](C)[C@H](N)CN(C(=O)[C@@H]1C[C@H]1c1ccc(Cl)cc1)c1ccc(-c2ccccc2)cc1 | 4300 |
| CC(C)C[C@H](N)CN(C(=O)C(C)Cc1ccccc1)c1ccc(-c2ccccc2)cc1 (some centres undefined) | 1.2 |
| N[C@@H](CC1CCCCC1)CN(C(=O)[C@@H]1C[C@H]1c1ccccc1)c1ccc(-c2ccccc2)cc1 | 1.7 |
| N[C@H](CN(C(=O)[C@@H]1C[C@H]1c1ccccc1)c1ccc(-c2ccccc2)cc1)C1CCCCC1 | 0.66 |

Continued, values first:

| EC50 [nM] | Compound |
| --- | --- |
| 1.1 | CC(C)[C@H](N)CN(C(=O)[C@@H]1C[C@H]1c1ccccc1)c1ccc(-c2ccccc2)cc1 |
| 0.68 | CO[C@H](C)[C@H](N)CN(C(=O)[C@@H]1C[C@H]1c1ccccc1)c1ccc(-c2ccccc2)cc1 |
| 1.4 | CC(C)(N)CN(C(=O)[C@@H]1C[C@H]1c1ccccc1)c1ccc(-c2ccccc2)cc1 |
| 11 | CC(C)(C)[C@H](N)CN(C(=O)[C@@H]1C[C@H]1c1ccccc1)c1ccc(-c2ccccc2)cc1 |
| 3 | CC(C)C[C@H](N)CCN(C(=O)[C@@H]1C[C@H]1c1ccccc1)c1ccc(-c2ccccc2)cc1 |
| 2 | CCC(CC)C(N)CCN(C(=O)[C@@H]1C[C@H]1c1ccccc1)c1ccc(-c2ccccc2)cc1 (some centres undefined) |
| 5.1 | CC(C)CCNCCN(C(=O)[C@@H]1C[C@H]1c1ccccc1)c1ccc(-c2ccccc2)cc1 |
| > 100 | CC(C)CCCN(C(=O)[C@@H]1C[C@H]1c1ccccc1)c1ccc(-c2ccccc2)cc1 |
| 1.8 | CC(C)C[C@@H](N)CN(C(=O)[C@@H]1C[C@H]1c1ccccc1)c1ccc(-c2ccccc2)cc1 |
| 2 | CN[C@@H](CC(C)C)CN(C(=O)[C@@H]1C[C@H]1c1ccccc1)c1ccc(-c2ccccc2)cc1 |
| 5.8 | CC[C@H](C)[C@@H](CN(C(=O)[C@@H]1C[C@H]1c1ccccc1)c1ccc(-c2ccccc2)cc1)NC(C)=O |
| 1.4 | CC[C@@H](C)[C@H](N)CN(C(=O)[C@@H]1C[C@H]1c1ccccc1)c1ccc(-c2ccccc2)cc1 |
| 800 | CC[C@H](C)[C@H](N)CN(C(=O)[C@@H]1C[C@H]1c1ccccc1)c1ccc(-c2ccccc2)cc1 (racemic) |
| 880 | CC(C)C[C@H](N)CN(C(=O)[C@@H]1C[C@H]1c1ccccc1)c1ccc(-c2ccccc2)cc1 (racemic) |
